In ChEMBL document CHEMBL4507258 (2021):

Assays:
Conditions in all cases: Compound concentration 1000.0 nM
[1] = system: Tyrosine-protein kinase ABL1 (Homo sapiens), P00519 [F317L]
[2] = molecular target: Mitogen-activated protein kinase 4 (Homo sapiens) (UniProt P31152)
[3] = system: Mast/stem cell growth factor receptor Kit (Homo sapiens), P10721 [D816H]
[4] = molecular target: Ephrin type-A receptor 8 (Homo sapiens) (UniProt P29322)
[5] = system: Phosphatidylinositol 4,5-bisphosphate 3-kinase catalytic subunit alpha isoform (Homo sapiens), P42336 [C420R]
[6] = system: Epidermal growth factor receptor (Homo sapiens), P00533 [G719S]
[7] = molecular target: Tyrosine-protein kinase CSK (Homo sapiens) (UniProt P41240)
[8] = molecular target: Serine/threonine-protein kinase VRK2 (Homo sapiens) (UniProt Q86Y07)
[9] = molecular target: Testis-specific serine/threonine-protein kinase 1 (Homo sapiens) (UniProt Q9BXA7)
[10] = molecular target: Mitogen-activated protein kinase 11 (Homo sapiens) (UniProt Q15759)
[11] = molecular target: Serine/threonine-protein kinase PLK1 (Homo sapiens) (UniProt P53350)
[12] = molecular target: Serine/threonine-protein kinase 35 (Homo sapiens) (UniProt Q8TDR2)
[13] = molecular target: Mitogen-activated protein kinase kinase kinase 2 (Homo sapiens) (UniProt Q9Y2U5)
[14] = molecular target: Tyrosine-protein kinase Srms (Homo sapiens) (UniProt Q9H3Y6)
[15] = molecular target: Mitogen-activated protein kinase kinase kinase 14 (Homo sapiens) (UniProt Q99558)
[16] = molecular target: Rhodopsin kinase GRK7 (Homo sapiens) (UniProt Q8WTQ7)
[17] = molecular target: Mitogen-activated protein kinase 7 (Homo sapiens) (UniProt Q13164)
[18] = molecular target: Cytoplasmic tyrosine-protein kinase BMX (Homo sapiens) (UniProt P51813)
[19] = molecular target: Cyclin-dependent kinase-like 3 (Homo sapiens) (UniProt Q8IVW4)
[20] = molecular target: Non-receptor tyrosine-protein kinase TYK2 (Homo sapiens) (UniProt P29597)
[21] = molecular target: Tyrosine-protein kinase Mer (Homo sapiens) (UniProt Q12866)
[22] = molecular target: Tyrosine-protein kinase SYK (Homo sapiens) (UniProt P43405)
[23] = system: Tyrosine-protein kinase ABL1 (Homo sapiens), P00519 [T315I]
[24] = molecular target: Mitogen-activated protein kinase kinase kinase kinase 1 (Homo sapiens) (UniProt Q92918)
[25] = system: Hepatocyte growth factor receptor (Homo sapiens), P08581 [M1250T]
[26] = molecular target: RAC-beta serine/threonine-protein kinase (Homo sapiens) (UniProt P31751)
[27] = molecular target: Serine/threonine-protein kinase PLK2 (Homo sapiens) (UniProt Q9NYY3)
[28] = molecular target: Serine/threonine-protein kinase B-raf (Homo sapiens) (UniProt P15056)
[29] = molecular target: Bone morphogenetic protein receptor type-1B (Homo sapiens) (UniProt O00238)
[30] = molecular target: Cyclin-dependent kinase 4 (Homo sapiens) (UniProt P11802)
[31] = molecular target: Serine/threonine-protein kinase SIK1 (Homo sapiens, UniProt P57059)
[32] = molecular target: Serine/threonine-protein kinase MRCK beta (Homo sapiens) (UniProt Q9Y5S2)
[33] = molecular target: Dual specificity mitogen-activated protein kinase kinase 5 (Homo sapiens) (UniProt Q13163)
[34] = system: Phosphatidylinositol 4,5-bisphosphate 3-kinase catalytic subunit alpha isoform (Homo sapiens), P42336 [M1043I]
[35] = molecular target: Serine/threonine-protein kinase 36 (Homo sapiens) (UniProt Q9NRP7)
[36] = molecular target: RAF proto-oncogene serine/threonine-protein kinase (Homo sapiens) (UniProt P04049)
[37] = molecular target: BMP-2-inducible protein kinase (Homo sapiens) (UniProt Q9NSY1)
[38] = molecular target: Vascular endothelial growth factor receptor 3 (Homo sapiens) (UniProt P35916)
[39] = molecular target: Mitogen-activated protein kinase kinase kinase 5 (Homo sapiens) (UniProt Q99683)
[40] = molecular target: Ribosomal protein S6 kinase alpha-5 (Homo sapiens) (UniProt O75582)
[41] = molecular target: Tyrosine-protein kinase ITK/TSK (Homo sapiens) (UniProt Q08881)
[42] = molecular target: Serine/threonine-protein kinase PAK 2 (Homo sapiens) (UniProt Q13177)
[43] = molecular target: Insulin receptor-related protein (Homo sapiens) (UniProt P14616)
[44] = molecular target: Serine/threonine-protein kinase Nek7 (Homo sapiens) (UniProt Q8TDX7)
[45] = molecular target: Serine/threonine-protein kinase WNK4 (Homo sapiens) (UniProt Q96J92)

Measured: residual activity

Sequence of Serine/threonine-protein kinase 35 (Homo sapiens) (Q8TDR2 whole entry): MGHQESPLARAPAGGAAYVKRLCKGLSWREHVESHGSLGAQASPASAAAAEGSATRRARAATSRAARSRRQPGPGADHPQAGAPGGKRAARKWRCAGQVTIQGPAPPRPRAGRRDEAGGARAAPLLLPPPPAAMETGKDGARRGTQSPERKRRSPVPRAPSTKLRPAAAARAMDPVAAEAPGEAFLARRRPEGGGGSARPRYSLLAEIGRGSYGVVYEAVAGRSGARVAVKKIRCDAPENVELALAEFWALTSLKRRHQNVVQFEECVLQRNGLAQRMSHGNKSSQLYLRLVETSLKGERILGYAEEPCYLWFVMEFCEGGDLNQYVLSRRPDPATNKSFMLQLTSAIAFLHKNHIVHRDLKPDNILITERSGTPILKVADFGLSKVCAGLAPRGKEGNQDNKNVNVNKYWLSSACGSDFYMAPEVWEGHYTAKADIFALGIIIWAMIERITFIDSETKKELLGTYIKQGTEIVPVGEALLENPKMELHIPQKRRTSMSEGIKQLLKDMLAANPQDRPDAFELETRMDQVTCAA
Sequence of Serine/threonine-protein kinase WNK4 (Homo sapiens) (Q96J92 whole entry): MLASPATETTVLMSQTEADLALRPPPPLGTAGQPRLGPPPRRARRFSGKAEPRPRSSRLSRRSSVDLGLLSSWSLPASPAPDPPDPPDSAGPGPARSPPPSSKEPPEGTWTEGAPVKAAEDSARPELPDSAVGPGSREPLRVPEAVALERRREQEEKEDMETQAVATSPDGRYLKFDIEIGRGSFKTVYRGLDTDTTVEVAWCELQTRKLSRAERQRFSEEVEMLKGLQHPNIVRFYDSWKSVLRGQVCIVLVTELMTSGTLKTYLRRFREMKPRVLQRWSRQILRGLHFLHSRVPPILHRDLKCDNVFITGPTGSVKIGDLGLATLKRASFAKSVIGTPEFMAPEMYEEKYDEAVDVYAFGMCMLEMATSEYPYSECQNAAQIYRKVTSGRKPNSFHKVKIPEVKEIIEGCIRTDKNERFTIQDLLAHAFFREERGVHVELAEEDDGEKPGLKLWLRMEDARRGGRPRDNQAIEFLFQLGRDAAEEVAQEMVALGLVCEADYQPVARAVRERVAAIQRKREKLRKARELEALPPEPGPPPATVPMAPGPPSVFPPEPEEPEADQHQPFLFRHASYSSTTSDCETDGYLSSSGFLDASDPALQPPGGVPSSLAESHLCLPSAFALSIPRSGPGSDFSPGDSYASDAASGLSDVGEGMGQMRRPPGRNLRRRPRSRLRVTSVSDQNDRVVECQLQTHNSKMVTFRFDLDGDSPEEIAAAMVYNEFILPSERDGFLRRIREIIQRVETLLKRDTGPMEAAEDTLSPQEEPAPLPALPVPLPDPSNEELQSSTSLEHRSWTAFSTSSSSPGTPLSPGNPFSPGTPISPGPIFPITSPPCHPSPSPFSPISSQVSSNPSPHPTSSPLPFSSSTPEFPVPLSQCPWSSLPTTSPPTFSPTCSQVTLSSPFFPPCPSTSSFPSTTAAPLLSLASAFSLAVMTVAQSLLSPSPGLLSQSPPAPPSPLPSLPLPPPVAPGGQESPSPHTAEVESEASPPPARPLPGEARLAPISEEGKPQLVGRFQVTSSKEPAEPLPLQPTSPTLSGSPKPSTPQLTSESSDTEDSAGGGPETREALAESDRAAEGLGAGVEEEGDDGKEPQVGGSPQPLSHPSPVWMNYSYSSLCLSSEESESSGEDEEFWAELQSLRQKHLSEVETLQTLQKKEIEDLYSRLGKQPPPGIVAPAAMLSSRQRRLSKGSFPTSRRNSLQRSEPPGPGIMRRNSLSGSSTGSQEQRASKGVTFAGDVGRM
Sequence of Tyrosine-protein kinase ITK/TSK (Homo sapiens) (Q08881 whole entry): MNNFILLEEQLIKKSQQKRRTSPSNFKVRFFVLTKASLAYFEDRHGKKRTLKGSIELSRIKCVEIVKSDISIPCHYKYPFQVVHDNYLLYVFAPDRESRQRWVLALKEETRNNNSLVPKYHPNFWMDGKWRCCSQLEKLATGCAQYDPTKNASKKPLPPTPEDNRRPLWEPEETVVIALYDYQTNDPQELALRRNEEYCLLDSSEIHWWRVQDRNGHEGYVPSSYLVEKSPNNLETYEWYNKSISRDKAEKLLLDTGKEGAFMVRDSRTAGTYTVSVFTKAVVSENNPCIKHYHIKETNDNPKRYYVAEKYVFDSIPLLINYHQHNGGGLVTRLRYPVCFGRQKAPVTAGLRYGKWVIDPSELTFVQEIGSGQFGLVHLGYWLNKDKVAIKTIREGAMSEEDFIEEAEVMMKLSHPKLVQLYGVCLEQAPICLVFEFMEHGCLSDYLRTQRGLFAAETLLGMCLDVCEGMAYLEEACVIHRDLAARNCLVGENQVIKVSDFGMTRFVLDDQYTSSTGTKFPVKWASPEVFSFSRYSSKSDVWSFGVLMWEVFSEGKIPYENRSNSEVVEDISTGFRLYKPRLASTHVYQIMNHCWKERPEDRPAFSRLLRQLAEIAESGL
Sequence of Serine/threonine-protein kinase SIK1 (P57059 whole entry): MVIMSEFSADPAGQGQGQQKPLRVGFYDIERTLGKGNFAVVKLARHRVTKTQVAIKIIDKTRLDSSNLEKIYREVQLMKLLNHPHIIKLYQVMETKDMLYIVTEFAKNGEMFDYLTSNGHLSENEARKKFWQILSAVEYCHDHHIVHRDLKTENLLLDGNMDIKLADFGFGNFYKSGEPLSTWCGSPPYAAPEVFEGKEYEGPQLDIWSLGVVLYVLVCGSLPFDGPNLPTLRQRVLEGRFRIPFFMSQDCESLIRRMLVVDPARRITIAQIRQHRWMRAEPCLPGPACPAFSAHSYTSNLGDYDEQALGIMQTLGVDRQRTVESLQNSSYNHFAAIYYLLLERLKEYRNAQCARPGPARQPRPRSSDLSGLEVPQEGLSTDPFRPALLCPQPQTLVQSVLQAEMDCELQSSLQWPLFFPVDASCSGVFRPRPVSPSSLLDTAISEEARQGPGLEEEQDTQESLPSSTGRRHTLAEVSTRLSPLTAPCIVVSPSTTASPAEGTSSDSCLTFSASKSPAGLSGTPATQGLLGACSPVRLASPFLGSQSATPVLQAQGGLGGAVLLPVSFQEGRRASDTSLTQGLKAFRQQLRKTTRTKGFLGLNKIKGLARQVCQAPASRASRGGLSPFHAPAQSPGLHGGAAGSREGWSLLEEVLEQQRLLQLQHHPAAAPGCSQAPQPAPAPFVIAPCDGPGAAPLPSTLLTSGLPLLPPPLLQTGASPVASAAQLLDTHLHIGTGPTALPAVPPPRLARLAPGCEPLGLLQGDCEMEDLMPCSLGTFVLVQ
Sequence of Ephrin type-A receptor 8 (Homo sapiens) (P29322 whole entry, canonical isoform): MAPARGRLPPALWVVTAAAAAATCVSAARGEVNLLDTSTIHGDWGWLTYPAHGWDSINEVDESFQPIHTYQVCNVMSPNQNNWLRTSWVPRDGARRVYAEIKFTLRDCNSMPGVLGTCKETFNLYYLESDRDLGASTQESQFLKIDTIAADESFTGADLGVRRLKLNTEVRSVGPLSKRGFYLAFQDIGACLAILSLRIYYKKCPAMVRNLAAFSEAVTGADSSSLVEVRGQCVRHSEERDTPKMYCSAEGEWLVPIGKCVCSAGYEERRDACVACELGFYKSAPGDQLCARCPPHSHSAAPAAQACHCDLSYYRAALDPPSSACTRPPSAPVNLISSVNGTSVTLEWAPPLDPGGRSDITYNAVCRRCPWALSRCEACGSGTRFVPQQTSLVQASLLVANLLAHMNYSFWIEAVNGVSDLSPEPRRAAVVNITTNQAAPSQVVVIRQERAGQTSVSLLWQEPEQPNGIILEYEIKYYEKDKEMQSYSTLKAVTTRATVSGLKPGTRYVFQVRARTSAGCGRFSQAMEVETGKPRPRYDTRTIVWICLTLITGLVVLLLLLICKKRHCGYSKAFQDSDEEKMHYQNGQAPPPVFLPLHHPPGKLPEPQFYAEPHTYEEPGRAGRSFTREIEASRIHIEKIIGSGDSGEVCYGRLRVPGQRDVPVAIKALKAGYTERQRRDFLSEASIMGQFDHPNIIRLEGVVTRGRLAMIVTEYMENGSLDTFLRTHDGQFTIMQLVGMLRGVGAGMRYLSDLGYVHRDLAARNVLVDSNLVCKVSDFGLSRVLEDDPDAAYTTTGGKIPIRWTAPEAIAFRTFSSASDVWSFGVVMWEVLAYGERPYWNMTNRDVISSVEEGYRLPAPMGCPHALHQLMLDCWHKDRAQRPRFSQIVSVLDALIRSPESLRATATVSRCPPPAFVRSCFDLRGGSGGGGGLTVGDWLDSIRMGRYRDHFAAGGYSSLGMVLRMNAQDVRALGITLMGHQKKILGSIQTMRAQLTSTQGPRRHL
Sequence of Serine/threonine-protein kinase PAK 2 (Homo sapiens) (Q13177 whole entry): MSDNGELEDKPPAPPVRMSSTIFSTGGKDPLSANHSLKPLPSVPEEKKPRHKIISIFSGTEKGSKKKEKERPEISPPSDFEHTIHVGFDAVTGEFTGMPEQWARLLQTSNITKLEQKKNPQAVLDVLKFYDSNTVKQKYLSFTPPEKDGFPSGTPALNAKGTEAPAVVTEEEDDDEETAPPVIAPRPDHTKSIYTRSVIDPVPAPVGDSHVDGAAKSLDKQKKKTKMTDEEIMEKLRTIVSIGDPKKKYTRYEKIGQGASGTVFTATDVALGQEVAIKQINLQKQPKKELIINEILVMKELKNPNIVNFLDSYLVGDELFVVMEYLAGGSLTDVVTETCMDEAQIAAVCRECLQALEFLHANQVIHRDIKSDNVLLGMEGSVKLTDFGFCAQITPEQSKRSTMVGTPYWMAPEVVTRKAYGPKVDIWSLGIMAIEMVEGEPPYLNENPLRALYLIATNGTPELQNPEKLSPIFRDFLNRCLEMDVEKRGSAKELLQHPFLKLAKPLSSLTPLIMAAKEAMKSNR
Sequence of Cyclin-dependent kinase 4 (Homo sapiens) (P11802 whole entry): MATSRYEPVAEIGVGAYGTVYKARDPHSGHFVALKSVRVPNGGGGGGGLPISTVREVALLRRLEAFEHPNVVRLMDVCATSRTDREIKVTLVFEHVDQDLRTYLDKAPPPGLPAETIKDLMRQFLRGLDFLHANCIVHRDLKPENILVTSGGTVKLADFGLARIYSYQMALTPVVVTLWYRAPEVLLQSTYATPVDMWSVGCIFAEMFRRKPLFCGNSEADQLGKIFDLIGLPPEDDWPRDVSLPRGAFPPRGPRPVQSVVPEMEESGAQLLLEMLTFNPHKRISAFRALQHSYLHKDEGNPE

CCCCN(CCCC)C(=O)CN1C[C@@H](c2cc(OC)c3c(c2)OCO3)[C@H](C(=O)O)[C@H]1CC(C)(C)CCC [A-545]
inactive: [1] 100% | [2] 100% | [3] 78.5% | [4] 99.9% | [5] 99.4% | [6] 100% | [7] 100% | [8] 95.4% | [9] 100% | [10] 99.2% | [11] 100% | [12] 100% | [13] 84.6% | [14] 90.6% | [15] 100% | [16] 90.8% | [17] 100% | [18] 84.6% | [19] 83.6% | [20] 100% | [21] 100% | [22] 100% | [23] 89.2% | [24] 99.6% | [25] 100% | [26] 100% | [27] 98.4% | [28] 92.3% | [29] 100% | [30] 100% | [31] 100% | [32] 100% | [33] 100% | [34] 100% | [35] 75% | [36] 93.3% | [37] 100% | [38] 100% | [39] 100% | [40] 74.4% | [41] 100% | [42] 83.5% | [43] 93.2% | [44] 86.6% | [45] 100%

CCCCN(CCCC)C(=O)CN1C[C@H](c2cc(OC)c3c(c2)OCO3)[C@@H](C(=O)O)[C@@H]1CC(C)(C)CCC [ABT-546]
inactive: [1] 100% | [2] 100% | [3] 67.3% | [4] 100% | [5] 100% | [6] 100% | [7] 100% | [8] 72.8% | [9] 100% | [10] 94.2% | [11] 73.5% | [12] 100% | [13] 81.2% | [14] 69.6% | [15] 100% | [16] 98.3% | [17] 100% | [18] 100% | [19] 100% | [20] 100% | [21] 100% | [22] 100% | [23] 80.7% | [24] 90.6% | [25] 100% | [26] 100% | [27] 67.1% | [28] 90.4% | [29] 59% | [30] 70.3% | [31] 100% | [32] 100% | [33] 100% | [34] 83.7% | [35] 100% | [36] 100% | [37] 100% | [38] 100% | [39] 100% | [40] 100% | [41] 100% | [42] 100% | [43] 100% | [44] 100% | [45] 97.9%
